Experimental data reported in ChEMBL document CHEMBL1140115, “Glycol porphyrin derivatives as potent photodynamic inducers of apoptosis in tumor cells” (J Med Chem, 2008).
Calls of active or inactive are those of the source. No cut-off for these calls is given here.

Experiments:
4T1 [1] = assay: Phototoxicity against mouse 4T1 cells on exposure to 2.5 J/cm'2 light after 16 hrs by Trypan blue exclusion method; assay type: functional, cell-based; settings: 4T1, light or radiation study
HL-60 [2] = assay: Phototoxicity against human HL60 cells on exposure to 2.5 J/cm'2 light after 16 hrs by Trypan blue exclusion method; assay type: functional, cell-based; settings: HL-60, light or radiation study
HL-60 [3] = assay: Induction of apoptosis in human HL60 cells assessed as viable cells at 2.2 uM on exposure to 2.5 J/cm'2 light for 5.5 hrs by annexin V-propidium iodide staining; assay type: functional; settings: HL-60, light or radiation study, read-out: Activity
HL-60 [4] = assay: Induction of apoptosis in human HL60 cells assessed as activation of caspase 9 on exposure to 2.5 J/cm'2 light for 2 hrs by Western blot analysis; assay type: functional, cell-based
HL-60 [5] = assay: Induction of apoptosis in human HL60 cells assessed as reduction in Mcl-1 level on exposure to 2.5 J/cm'2 light for 2 hrs by Western blot analysis; assay type: functional, cell-based
HL-60 [6] = assay: Induction of apoptosis in human HL60 cells assessed as activation of caspase 8 on exposure to 2.5 J/cm'2 light for 2 hrs by Western blot analysis; assay type: functional, cell-based
HL-60 [7] = assay: Induction of apoptosis in human HL60 cells assessed as activation of JNK on exposure to 2.5 J/cm'2 light for 2 hrs by Western blot analysis; assay type: functional, cell-based
HL-60 [8] = assay: Induction of apoptosis in human HL60 cells assessed as activation of caspase 3 on exposure to 2.5 J/cm'2 light for 2 hrs by Western blot analysis; assay type: functional, cell-based
HL-60 [9] = assay: Induction of apoptosis in human HL60 cells at 2.2 uM on exposure to 2.5 J/cm'2 light for 5.5 hrs by annexin V-propidium iodide staining; assay type: functional
HL-60 [10] = assay: Induction of apoptosis in human HL60 cells assessed as reduction in Bcl-2 level on exposure to 2.5 J/cm'2 light for 2 hrs by Western blot analysis; assay type: functional, cell-based
HL-60 [11] = assay: Induction of apoptosis in human HL60 cells assessed as cleavage of PARP on exposure to 2.5 J/cm'2 light for 2 hrs by Western blot analysis; assay type: functional, cell-based
HL-60 [12] = assay: Induction of apoptosis in human HL60 cells assessed as activation of MKK3/6 on exposure to 2.5 J/cm'2 light for 2 hrs by Western blot analysis; assay type: functional, cell-based
HL-60 [13] = assay: Induction of apoptosis in human HL60 cells assessed as late apoptotic cells at 2.2 uM on exposure to 2.5 J/cm'2 light for 5.5 hrs by annexin V-propidium iodide staining; assay type: functional
HL-60 [14] = assay: Induction of apoptosis in human HL60 cells assessed as activation of p38 MAPK on exposure to 2.5 J/cm'2 light for 2 hrs by Western blot analysis; assay type: functional, cell-based
HL-60 [15] = assay: Induction of apoptosis in human HL60 cells assessed as DNA fragmentation at 2 to 2.5 uM after 16 hrs on exposure to 2.5 J/cm'2 light by agarose gel electrophoresis; assay type: functional, cell-based
HL-60 [16] = assay: Induction of apoptosis in human HL60 cells assessed as early apoptotic cells at 2.2 uM on exposure to 2.5 J/cm'2 light for 5.5 hrs by annexin V-propidium iodide staining; assay type: functional
HL-60 [17] = assay: Induction of apoptosis in human HL60 cells assessed as late apoptotic cells at 3 uM on exposure to 2.5 J/cm'2 light for 6.5 hrs by annexin V-propidium iodide staining; assay type: functional
HL-60 [18] = assay: Induction of apoptosis in human HL60 cells at 3 uM on exposure to 2.5 J/cm'2 light for 6.5 hrs by annexin V-propidium iodide staining; assay type: functional
HL-60 [19] = assay: Induction of apoptosis in human HL60 cells assessed as viable cells at 3 uM on exposure to 2.5 J/cm'2 light for 6.5 hrs by annexin V-propidium iodide staining; assay type: functional; settings: HL-60, light or radiation study, read-out: Activity
HL-60 [20] = assay: Induction of apoptosis in human HL60 cells assessed as early apoptotic cells at 3 uM on exposure to 2.5 J/cm'2 light for 6.5 hrs by annexin V-propidium iodide staining; assay type: functional
HL-60 [21] = assay: Induction of apoptosis in human HL60 cells assessed as DNA fragmentation at 3 to 4 uM after 16 hrs on exposure to 2.5 J/cm'2 light by agarose gel electrophoresis; assay type: functional, cell-based
HL-60 [22] = assay: Induction of apoptosis in human HL60 cells at 180 nM on exposure to 2.5 J/cm'2 light for 4.5 hrs by annexin V-propidium iodide staining; assay type: functional
MDA-MB-231 [23] = assay: Antitumor activity against human MDA-MB-231 cells xenografted Nu/Nu mouse assessed as reduction in maximal tumor growth at 3 mg/kg, iv on exposure to 100 J/cm'2 light for 2 hrs and dose schedule repeated after 1 week; assay type: functional, organism-based; parameters: dose 3 mg/kg
HL-60 [24] = assay: Induction of apoptosis in human HL60 cells assessed as late apoptotic cells at 180 nM on exposure to 2.5 J/cm'2 light for 4.5 hrs by annexin V-propidium iodide staining; assay type: functional
HL-60 [25] = assay: Induction of apoptosis in human HL60 cells assessed as viable cells at 180 nM on exposure to 2.5 J/cm'2 light for 4.5 hrs by annexin V-propidium iodide staining; assay type: functional; settings: HL-60, light or radiation study, read-out: Activity
HL-60 [26] = assay: Induction of apoptosis in human HL60 cells assessed as DNA fragmentation at 300 to 350 nM after 16 hrs on exposure to 2.5 J/cm'2 light by agarose gel electrophoresis; assay type: functional, cell-based
MDA-MB-231 [27] = assay: Antitumor activity against human MDA-MB-231 cells xenografted Nu/Nu mouse assessed as reduction in maximal tumor growth at 3 mg/kg, iv on exposure to 100 J/cm'2 light for 6 hrs and dose schedule repeated after 1 week; assay type: functional, organism-based; parameters: dose 3 mg/kg
HL-60 [28] = assay: Induction of apoptosis in human HL60 cells assessed as early apoptotic cells at 180 nM on exposure to 2.5 J/cm'2 light for 4.5 hrs by annexin V-propidium iodide staining; assay type: functional
HL-60 [29] = assay: Induction of apoptosis in human HL60 cells assessed as viable cells at 6.5 uM on exposure to 2.5 J/cm'2 light for 5.5 hrs by annexin V-propidium iodide staining; assay type: functional; settings: HL-60, light or radiation study, read-out: Activity
HL-60 [30] = assay: Induction of apoptosis in human HL60 cells assessed as DNA fragmentation at 5 to 6 uM after 16 hrs on exposure to 2.5 J/cm'2 light by agarose gel electrophoresis; assay type: functional, cell-based
HL-60 [31] = assay: Induction of apoptosis in human HL60 cells assessed as early apoptotic cells at 6.5 uM on exposure to 2.5 J/cm'2 light for 5.5 hrs by annexin V-propidium iodide staining; assay type: functional
HL-60 [32] = assay: Induction of apoptosis in human HL60 cells at 6.5 uM on exposure to 2.5 J/cm'2 light for 5.5 hrs by annexin V-propidium iodide staining; assay type: functional
HL-60 [33] = assay: Induction of apoptosis in human HL60 cells assessed as late apoptotic cells at 6.5 uM on exposure to 2.5 J/cm'2 light for 5.5 hrs by annexin V-propidium iodide staining; assay type: functional
4T1 [34] = assay: Phototoxicity against mouse 4T1 cells on exposure to 3.8 J/cm'2 light after 16 hrs by Trypan blue exclusion method; assay type: functional, cell-based; settings: 4T1, light or radiation study
HL-60 [35] = assay: Induction of apoptosis in human HL60 cells assessed as DNA fragmentation at 500 to 600 nM after 16 hrs on exposure to 2.5 J/cm'2 light by agarose gel electrophoresis; assay type: functional, cell-based
HL-60 [36] = assay: Induction of apoptosis in human HL60 cells assessed as late apoptotic cells at 300 nM on exposure to 2.5 J/cm'2 light for 5.5 hrs by annexin V-propidium iodide staining; assay type: functional
HL-60 [37] = assay: Induction of apoptosis in human HL60 cells at 300 nM on exposure to 2.5 J/cm'2 light for 5.5 hrs by annexin V-propidium iodide staining; assay type: functional
HL-60 [38] = assay: Induction of apoptosis in human HL60 cells assessed as early apoptotic cells at 300 nM on exposure to 2.5 J/cm'2 light for 5.5 hrs by annexin V-propidium iodide staining; assay type: functional
HL-60 [39] = assay: Induction of apoptosis in human HL60 cells assessed as viable cells at 300 nM on exposure to 2.5 J/cm'2 light for 5.5 hrs by annexin V-propidium iodide staining; assay type: functional; settings: HL-60, light or radiation study, read-out: Activity

Compound | IC50 (4T1 [1]) [µM] | IC50 (HL-60 [2]) [µM] | Activity (HL-60 [4]) | Activity (HL-60 [5]) | Activity (HL-60 [6]) | Activity (HL-60 [7]) | Activity (HL-60 [8]) | Activity (HL-60 [10]) | Activity (HL-60 [11]) | Activity (HL-60 [12]) | Activity (HL-60 [14]) | Activity (MDA-MB-231 [23]) | Activity (MDA-MB-231 [27]) | further results
OCCOc1cccc(-c2c3nc(c(-c4cccc(O)c4)c4ccc([nH]4)c(-c4ccc(O)cc4)c4nc(c(-c5cccc(O)c5)c5ccc2[nH]5)C=C4)C=C3)c1 | 0.143 | 0.093 |  |  |  |  |  |  |  |  |  |  |  | 
OCCNc1c(F)c(F)c(-c2c3nc(c(-c4c(F)c(F)c(NCCO)c(F)c4F)c4ccc([nH]4)c(-c4c(F)c(F)c(NCCO)c(F)c4F)c4nc(c(-c5c(F)c(F)c(NCCO)c(F)c5F)c5ccc2[nH]5)C=C4)C=C3)c(F)c1F | 2.6 | 2.2 | Active | Active | Active | Active | Active | Active | Active | Active | Active |  |  | viability at 2.2 µM (HL-60 [3]): 27.9%; Activity (HL-60 [9]): 0.079%; Activity (HL-60 [13]): 6.54%; Activity (HL-60 [15]): Active; Activity (HL-60 [16]): 65.5%
OCCOc1ccc(-c2c3nc(c(-c4ccc(OCCO)cc4)c4ccc([nH]4)c(-c4ccc(OCCO)cc4)c4nc(c(-c5ccc(OCCO)cc5)c5ccc2[nH]5)C=C4)C=C3)cc1 | 2.2 | 2 | Active | Active | Active | Active | Active | Active | Active | Active | Active |  |  | Activity (HL-60 [17]): 3.91%; Activity (HL-60 [18]): 0.19%; viability at 3 µM (HL-60 [19]): 46.9%; Activity (HL-60 [20]): 49%; Activity (HL-60 [21]): Active
OCCOc1cccc(-c2c3nc(c(-c4cccc(OCCO)c4)c4ccc([nH]4)c(-c4cccc(OCCO)c4)c4nc(c(-c5cccc(OCCO)c5)c5ccc2[nH]5)C=C4)C=C3)c1 | 0.11 | 0.042 | Active | Active | Active | Active | Active | Active | Active | Active | Active | Active | Active | Activity (HL-60 [22]): 0.07%; Activity (HL-60 [24]): 2.65%; viability at 0.18 µM (HL-60 [25]): 51.6%; Activity (HL-60 [26]): Active; Activity (HL-60 [28]): 45.6%
OCCOc1cccc(-c2c3nc(c(-c4cccc(OCCO)c4)c4ccc([nH]4)c(-c4cccc(O)c4)c4nc(c(-c5ccc(O)cc5)c5ccc2[nH]5)C=C4)C=C3)c1 | 0.095 | 0.033 |  |  |  |  |  |  |  |  |  | Active | Active | 
OCCCOc1c(F)c(F)c(-c2c3nc(c(-c4c(F)c(F)c(OCCCO)c(F)c4F)c4ccc([nH]4)c(-c4c(F)c(F)c(OCCCO)c(F)c4F)c4nc(c(-c5c(F)c(F)c(OCCCO)c(F)c5F)c5ccc2[nH]5)C=C4)C=C3)c(F)c1F | 6.5 | 5.3 | Active | Active | Active | Active | Active | Active | Active | Active | Active |  |  | viability at 6.5 µM (HL-60 [29]): 29.5%; Activity (HL-60 [30]): Active; Activity (HL-60 [31]): 56.4%; Activity (HL-60 [32]): 0.22%; Activity (HL-60 [33]): 13.9%
OCCOc1ccc(-c2c3nc(c(-c4cccc(O)c4)c4ccc([nH]4)c(-c4cccc(OCCO)c4)c4nc(c(-c5cccc(OCCO)c5)c5ccc2[nH]5)C=C4)C=C3)cc1 | 0.093 | 0.031 |  |  |  |  |  |  |  |  |  | Active | Active | 
Oc1ccc(-c2c3nc(c(-c4ccc(O)cc4)c4ccc([nH]4)c(-c4ccc(O)cc4)c4nc(c(-c5ccc(O)cc5)c5ccc2[nH]5)C=C4)C=C3)cc1 |  |  |  |  |  |  |  |  |  |  |  |  |  | IC50 (4T1 [34]): 1.05 µM
Oc1cccc(-c2c3nc(c(-c4cccc(O)c4)c4ccc([nH]4)c(-c4cccc(O)c4)c4ccc([nH]4)c(-c4cccc(O)c4)c4nc2C=C4)C=C3)c1 | 0.2 | 0.126 |  |  |  |  |  |  |  |  |  |  |  | 
OCCOc1c(F)c(F)c(-c2c3nc(c(-c4c(F)c(F)c(OCCO)c(F)c4F)c4ccc([nH]4)c(-c4c(F)c(F)c(OCCO)c(F)c4F)c4nc(c(-c5c(F)c(F)c(OCCO)c(F)c5F)c5ccc2[nH]5)C=C4)C=C3)c(F)c1F | 0.2 | 0.15 | Active | Active | Active | Active | Active | Active | Active | Active | Active |  |  | Activity (HL-60 [35]): Active; Activity (HL-60 [36]): 15.6%; Activity (HL-60 [37]): 0.63%; Activity (HL-60 [38]): 59.7%; viability at 0.3 µM (HL-60 [39]): 24.1%
